The values that follow come from patent US20070231382A1, “Pharmaceutical composition” (priority 2001, published 2007).

SMILES strings stand for the structures.

For orientation: half-life means how long it takes for the measured level to halve. Read a low half-life as rapid decline.

Data set [1] can be described thus: Plasma half life after oral administration. It counts as in vivo. Particulars: human. The text has this:
The immediate release pharmaceutical compositions of the invention, and which are useful in the kits and methods of the invention are “immediate release” tablet dosage forms. The tablets of the invention have neither the pharmacokinetic nor physical characteristics of extended release pharmaceutical dosage forms. Thus, a tablet of the invention will disintegrate or dissolve rapidly, preferably within one hour of administration, and administration of a tablet of the invention will result in a rapid rise in the blood plasma concentration of 5-methyl-2-(2′-chloro-6′-fluoroanilino)phenylacetic acid.

The nature of data set [2]: Clinical efficacy of once a day oral dose (anti-inflammatory, analgesic). It counts as in vivo, humans. As to the method:
Such an agent is particularly useful in the treatment of chronic indications, such as rheumatoid arthritis and osteoarthritis as well as Alzheimer's Disease and prophylaxis of colon cancer, where the drug needs to be taken every day for the duration of a subject's life, because compliance is much easier with once a day dosing.
A single, 400 mg tablet that is easy to swallow facilitates compliance with a once-a-day, 400 mg dose treatment regimen.

The nature of data set [3]: Compressibility of the drug substance. The class given is physicochemical. The following applies: drug substance and its pharmaceutically acceptable salts. As to the method:
WO 99/11605, published Mar. 11, 1999 discloses 5-alkyl-2-arylaminophenylacetic acids and derivatives thereof as potent, selective inhibitors of cyclooxygenase-2. […] This active agent, when administered once a day, in a single, immediate release tablet formulation in an amount of about 400 mg, where the active agent comprises about 65% by weight of the tablet, provides effective anti-inflammatory treatment over a 24 hour period, without the use of extended release pharmaceutical formulation excipients and technology, and in a tablet form which is of a size that is easy to swallow.

Regarding `Cc1ccc(Nc2c(F)cccc2Cl)c(CC(=O)O)c1` [5-methyl-2-(2′-chloro-6′-fluoroanilino)phenylacetic acid], the half-life in data set [1] was in the range of 3 to 6 h. The Analgesic efficacy result in data set [2] (400 mg) was “effective analgesic dose”. For the same compound, the “Anti-inflammatory treatment, duration of action” value in data set [2] (humans, single oral dose of about 400 mg per day, immediate-release tablet) was “effective, safe anti-inflammatory treatment over a 24 hour period”. The Compressibility result in data set [3] is reported as “poor compressibility”.
